The source of these data is US11366102B2, “Spectographic metabolite-signature for identifying a subject's susceptibility to drugs” (Olaris, Inc., priority 2018, dated 2022).

The test system of one data set is ER+/HER2− metastatic BC. As to the kind of experiment: Retrospective study of metastatic BC patients treated with CDK4/6 inhibitors, classified R or NR by change in sum of diameters of target tumors after 6 months, with overall survival. The class given is in vivo, human. The settings on record: for Patients within the NR group / Number of non-responders (NR): at least a 20% increase in the sum of diameters of target tumors after 6 months; for Patients within the NR group: 10 NR of 24 patients; for Number of non-responders (NR) / Number of responders (R): samples separated by inhibitor; for Number of responders (R): at least a 30% decrease in the sum of diameters of target tumors after 6 months of treatment. An excerpt: Here we describe a retrospective study analyzing plasma-based metabolites from a baseline (BL) sample and after 2-months (2M) of treatment of 24 women with ER+/HER2-− metastatic BC treated with CDK4/6 inhibitors, palbociclib or ribociclib.

In data set [1] the test system is adenoid cystic carcinomas of the salivary gland. The settings on record: despite increased expression of c-kit; cited from earlier work.
The target in the next data set is T1, CYP2A6 (Homo sapiens, UniProt P11509).
T1 sequence (P11509 1-494): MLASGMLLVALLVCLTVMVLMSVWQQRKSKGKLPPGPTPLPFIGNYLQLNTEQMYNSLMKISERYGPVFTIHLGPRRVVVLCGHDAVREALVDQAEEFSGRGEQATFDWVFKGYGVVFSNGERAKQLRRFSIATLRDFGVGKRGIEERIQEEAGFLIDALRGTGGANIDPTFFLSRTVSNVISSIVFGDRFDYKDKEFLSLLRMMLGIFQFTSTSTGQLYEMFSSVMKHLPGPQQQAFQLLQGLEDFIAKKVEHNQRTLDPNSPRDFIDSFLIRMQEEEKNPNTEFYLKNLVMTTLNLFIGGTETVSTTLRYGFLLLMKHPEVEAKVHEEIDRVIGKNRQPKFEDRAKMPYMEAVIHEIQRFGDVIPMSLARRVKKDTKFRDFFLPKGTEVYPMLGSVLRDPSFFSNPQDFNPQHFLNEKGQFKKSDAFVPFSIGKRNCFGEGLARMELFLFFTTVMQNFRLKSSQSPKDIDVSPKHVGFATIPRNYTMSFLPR
The settings on record: off-target effect; cited from earlier work.

The next data set addresses CYP2C19 (Homo sapiens, UniProt P33261). The settings on record: off-target effect; cited from earlier work.

CYP2C19, sequence (P33261 whole entry): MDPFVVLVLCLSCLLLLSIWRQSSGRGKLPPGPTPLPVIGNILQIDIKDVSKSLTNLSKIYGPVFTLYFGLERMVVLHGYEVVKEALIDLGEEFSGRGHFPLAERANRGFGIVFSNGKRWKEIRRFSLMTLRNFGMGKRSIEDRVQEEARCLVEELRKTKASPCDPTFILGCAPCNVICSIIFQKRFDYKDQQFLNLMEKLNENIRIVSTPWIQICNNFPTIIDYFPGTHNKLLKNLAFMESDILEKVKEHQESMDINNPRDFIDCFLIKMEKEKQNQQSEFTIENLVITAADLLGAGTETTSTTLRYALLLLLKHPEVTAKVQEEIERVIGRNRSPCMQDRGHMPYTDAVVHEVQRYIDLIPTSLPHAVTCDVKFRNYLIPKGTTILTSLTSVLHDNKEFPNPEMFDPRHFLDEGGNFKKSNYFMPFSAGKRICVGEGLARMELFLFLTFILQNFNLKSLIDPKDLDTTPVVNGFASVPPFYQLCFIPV

In the case of `CN(C)C(=O)c1cc2cnc(Nc3ccc(N4CCNCC4)cn3)nc2n1C1CCCC1` [ribociclib], in the data set with ER+/HER2− metastatic BC, the “Patients within the NR group” value turned out to be 7 patients, the “Number of non-responders (NR)” value worked out at 6 and the “Number of responders (R)” value is given as 8.

As for `Cc1ccc(NC(=O)c2ccc(CN3CCN(C)CC3)cc2)cc1Nc1nccc(-c2cccnc2)n1` [imatinib], the “Effect on adenoid cystic carcinomas of the salivary gland” value in data set [1] is listed as “no effect”.

Take `N#Cc1ccc(C(c2ccc(C#N)cc2)n2cncn2)cc1` [letrozole]: the “Inhibition of CYP2A6” value at CYP2A6 was “inhibits”. Further, the “Inhibition of CYP2C19” value on CYP2C19 is reported as “inhibits”.

Turning to `CC(=O)c1c(C)c2cnc(Nc3ccc(N4CCNCC4)cn3)nc2n(C2CCCC2)c1=O` [palbociclib], in the data set on ER+/HER2− metastatic BC, the “Patients within the NR group” value was found to be 3 patients, the “Number of non-responders (NR)” value turned out to be 3 and the “Number of responders (R)” value is listed as 7.
